Measurements: ChEMBL document CHEMBL1134671, “Novel lead generation through hypothetical pharmacophore three-dimensional database searching: discovery of isoflavonoids as nonsteroidal inhibitors of rat 5 alpha-reductase” (J Med Chem, 2001)

Biological target: T1, Steroid 5-alpha-reductase (Rattus norvegicus, UniProt P24008+P31214)
T1 sequence (P24008 whole entry): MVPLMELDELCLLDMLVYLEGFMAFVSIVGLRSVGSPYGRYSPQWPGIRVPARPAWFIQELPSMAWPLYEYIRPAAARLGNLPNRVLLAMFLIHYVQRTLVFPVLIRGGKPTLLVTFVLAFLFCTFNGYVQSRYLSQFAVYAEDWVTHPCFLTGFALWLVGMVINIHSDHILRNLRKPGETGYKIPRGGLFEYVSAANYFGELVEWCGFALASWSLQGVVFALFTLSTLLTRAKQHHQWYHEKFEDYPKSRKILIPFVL
T1 sequence (P31214 whole entry): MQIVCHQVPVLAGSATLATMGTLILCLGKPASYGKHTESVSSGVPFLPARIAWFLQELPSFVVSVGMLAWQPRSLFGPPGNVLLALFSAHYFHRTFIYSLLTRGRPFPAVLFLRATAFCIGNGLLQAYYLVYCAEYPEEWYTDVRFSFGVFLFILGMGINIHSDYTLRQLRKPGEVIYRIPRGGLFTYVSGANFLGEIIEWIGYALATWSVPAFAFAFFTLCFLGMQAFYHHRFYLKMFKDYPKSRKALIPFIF
Assay: Inhibitory concentration against rat Steroid 5-alpha-reductase
Format: protein assay

IC50	Structure (SMILES)
6.9 µM	CC(C)(O)C1Cc2c(O)ccc(-c3coc4cc(O)cc(O)c4c3=O)c2O1 (stereo not drawn)
48.7 µM	COc1cc2c(cc1OC)-c1c(oc3c4c(cc(O)c3c1=O)OC(C)(C)C=C4)CO2
30.1 µM	COc1ccc(-c2coc3c4c(cc(OC)c3c2=O)OC(C)(C)C=C4)c(OC)c1
15.7 µM	C=C(C)C1Cc2c(cc3occ(-c4ccc(O)cc4O)c(=O)c3c2O)O1 (stereo not drawn)
26.2 µM	CC(C)(O)C1Cc2c(ccc(-c3coc4cc5c(c(O)c4c3=O)CC(C(C)(C)O)O5)c2O)O1 (stereo not drawn)
31 µM	COc1cc2c(c3occ(-c4ccc(OCc5ccccc5)cc4OCc4ccccc4)c(=O)c13)C(=O)CC(C)(C)O2
23.1 µM	CC(C)(O)C1Cc2c(ccc(-c3coc4cc(O)cc(O)c4c3=O)c2O)O1 (stereo not drawn)
27.4 µM	COc1cc2c(c3occ(-c4ccc(OCc5ccccc5)cc4OCc4ccccc4)c(=O)c13)C=CC(C)(C)O2
